Test results reported in patent US20200038412A1, “METHODS OF TREATING ALZHEIMER'S DISEASE USING AMINOSTEROL COMPOSITIONS” (Enterin, Inc., priority 2018, published 2020).
“Also recorded” adds a separate entry of the source.

Columns and labels:
[1] = Preclinical oral dosing in dogs; type: in vivo
C. elegans model of PD = details: in vivo, C. elegans (Perni et al. 2017); cited from earlier work
[2] = test system: patients with PD and constipation; experiment: Circadian rhythm of wrist skin temperature; type: in vivo, human; details: for circadian rhythm of skin temperature / markers of healthy circadian function: oral, 12 evaluable patients
Experimental: Assessments were made at baseline and at the end of the fixed dose and washout periods. Circadian system status was evaluated by continuously monitoring wrist skin temperature (Thermochron iButton DS1921H; Maxim, Dallas) following published procedures (Sarabia et al. 2008).
Circadian rhythm of skin temperature was evaluable in 12 patients (i.e., those who had recordings that extended from baseline through washout). Circadian system functionality was evaluated by continuously monitoring wrist skin temperature using a temperature sensor (Thermochron iButton DS1921H; Maxim, Dallas, Tex.) (Sarabia et al. 2008). A nonparametric analysis was performed for each participant to characterize DST as previously described (Sarabia et al. 2008; Ortiz-Tudela et al. 2010).
Briefly, this analysis includes the following parameters: (i) the inter-daily stability (the constancy of 24-hour rhythmic pattern over days, IS); (ii) intra-daily variability (rhythm fragmentation, IV); (iii) average of 10-minute intervals for the 10 hours with the minimum temperature (L10); (iv) average of 10-minute intervals for the 5 hours with the maximum temperature (M5) and the relative amplitude (RA), which was determined by the difference between M5 and L10, divided by the sum of both. Finally, the Circadian Function Index (CFI) was calculated by integrating IS, IV, and RA. Consequently, CFI is a global measure that oscillates between 0 for the absence of circadian rhythmicity and 1 for a robust circadian rhythm (Ortiz-Tudela et al. 2010).

[3] = test system: patients with PD and constipation; experiment: Phase 2 trial Stage 1: bowel (prokinetic) response to single escalating oral doses; type: in vivo, human; details: Stage 1, single oral dose
Experimental: Following successful screening, all subjects underwent a 14-day run-in period where the degree of constipation was assessed through a validated daily log (Zinsmeister et al. 2013) establishing baseline CSBMs/week. Subjects with an average of <3 CSBMs/week proceeded to dosing.
Tolerability limits included diarrhea or vomiting.

[4] = Preclinical oral dosing in rats; type: in vivo
[5] = test system: patients with PD and constipation; experiment: Phase 2 trial Stage 2: adverse events; type: in vivo, human
Experimental: In Stage 2, 34 patients were evaluated.

[6] = test system: patients with PD and constipation; experiment: Phase 2 trial, all dosed patients (Stage 1 and 2): adverse events; type: in vivo, human
Experimental: Fifty patients were enrolled and 44 were dosed. In Stage 1, 10 patients were dosed, 1 (10%) withdrew prior to completion and 9 (90%) completed dosing. In stage 2, 6 (15%) patients had ≥3 CSBM/week at the end of the run-in period and were excluded, 34 patients were dosed and bowel response was assessable in 31 (91%). Two patients (5.8%) were terminated prior to completion because of recurrent dizziness, and 3 others withdrew during dosing (8.8%): 2 because of diarrhea and 1 because of holiday. Fifteen patients were randomized.
Most AEs were confined to the GI tract (88% in Stage 1 and 63% in Stage 2). The most common AE was nausea which occurred in 4/10 (40%) patients in Stage 1 and in 18/34 (52.9%) in Stage 2 (Table 2). Diarrhea occurred in 4/10 (40%) patients in Stage 1 and 15/34 (44%) in Stage 2. One patient withdrew because of recurrent diarrhea. Other GI related AEs included abdominal pain 11/44 […], flatulence 3/44 (6.8%), vomiting 3/44 (6.8%), worsening of acid reflux 2/44 (4.5%), and worsening of hemorrhoids 1/44 (2.2%). […] The only other noteworthy AE was dizziness 8/44 (18%). Dizziness was graded as moderate in one patient who was receiving an alpha-adrenergic blocking agent (Terazosin). This patient was withdrawn from the study and recovered spontaneously.

αS = αS (Homo sapiens, UniProt P37840); details: in vitro (Perni et al. 2017); cited from earlier work

CC(C)[C@@H](CC[C@@H](C)[C@H]1CC[C@H]2[C@@H]3[C@H](O)C[C@H]4C[C@@H](NCCCNCCCCN)CC[C@]4(C)[C@H]3CC[C@]12C)OS(=O)(=O)O (single isomer, unassigned) [squalamine (ENT-01), squalamine]
bioavailability [1]: limited bioavailability | tolerability [1]: well tolerated | oral bioavailability ([1]; preclinical studies): about 0.1% | formation of aggregates of αS (C. elegans model of PD): inhibit the formation of aggregates of αS | relative amplitude (RA) ([2]; fixed dose vs baseline, p=0.001): increasing | circadian function index (CFI) ([2]; fixed dose vs baseline, p=0.016): increasing | rhythm stability (inter-daily stability, IS) ([2]; fixed dose vs baseline, p=0.026): increasing | rhythm fragmentation (intra-daily variability, IV) ([2]; fixed dose vs baseline, p=0.031): reducing | circadian rhythm of skin temperature / markers of healthy circadian function ([2]; fixed dose vs baseline): significant positive impact on the circadian rhythm of skin temperature; also recorded: improved all markers of healthy circadian function | circadian rhythm of skin temperature / markers of healthy circadian function ([2]; fixed dose vs baseline, listed as aminosterol): improved all markers of healthy circadian function | circadian parameters during wash-out period ([2]; wash-out vs baseline (IS, CFI), 12 patients): improvement persisted for several of these circadian parameters | cumulative response rate (CSBM within 24 hours of dosing) ([3]; 25 mg): 25% | cumulative response rate (CSBM within 24 hours of dosing) ([3]; 200 mg (maximum)): 80% | absorption from the intestine ([4]; rat, portal blood concentrations following oral dosing of radioactive ENT-01): low | bioavailability ([4]; rats): limited bioavailability | tolerability ([4]; rats): well tolerated | AEs confined to the GI tract ([5]; Stage 2): 63% | Diarrhea (common adverse events by dose) ([5]; Stage 2, 75 mg): 7 | Dizziness, lightheadedness included (common adverse events by dose) ([5]; Stage 2, 75 mg): 8 | Nausea (common adverse events by dose) ([5]; Stage 2, 75 mg): 3 | Diarrhea (common adverse events by dose) ([5]; Stage 2, 100 mg): 10 | Dizziness, lightheadedness included (common adverse events by dose) ([5]; Stage 2, 100 mg): 7 | Nausea (common adverse events by dose) ([5]; Stage 2, 100 mg): 12 | Diarrhea (common adverse events by dose) ([5]; Stage 2, 125 mg): 3 | Dizziness, lightheadedness included (common adverse events by dose) ([5]; Stage 2, 125 mg): 8 | Nausea (common adverse events by dose) ([5]; Stage 2, 125 mg): 4 | Diarrhea (common adverse events by dose) ([5]; Stage 2, 150 mg): 2 | Dizziness, lightheadedness included (common adverse events by dose) ([5]; Stage 2, 150 mg): 2 | Nausea (common adverse events by dose) ([5]; Stage 2, 150 mg): 11 | Diarrhea (common adverse events by dose) ([5]; Stage 2, 175 mg): 1 | Dizziness, lightheadedness included (common adverse events by dose) ([5]; Stage 2, 175 mg): 0 | Nausea (common adverse events by dose) ([5]; Stage 2, 175 mg): 12 | Diarrhea (common adverse events by dose) ([5]; Stage 2, 200 mg): 3 | Nausea (common adverse events by dose) ([5]; Stage 2, 200 mg): 6 | Diarrhea (common adverse events by dose) ([5]; Stage 2, 225 mg): 3 | Nausea (common adverse events by dose) ([5]; Stage 2, 225 mg): 1 | Diarrhea (common adverse events by dose) ([5]; Stage 2, 250 mg): 2 | patients with diarrhea ([5]; Stage 2, 15/34 patients): 44% | patients with nausea ([5]; Stage 2, 18/34 patients): 52.9% | Abdominal pain, Mild ([5]; Stage 2, 34 dosed): 4 (11.7) n, % | Abdominal pain, Moderate ([5]; Stage 2, 34 dosed): 2 (5.8) n, % | Blood in urine, Mild ([5]; Stage 2, 34 dosed): 0 n, % | Blood in urine, Moderate ([5]; Stage 2, 34 dosed): 0 n, % | Diarrhea, Mild ([5]; Stage 2, 34 dosed): 12 (35) n, % | Diarrhea, Moderate ([5]; Stage 2, 34 dosed): 2 (5.8) n, % | Diarrhea, Severe ([5]; Stage 2, 34 dosed): 1 (2.9) n, % | Difficulty falling asleep, Mild ([5]; Stage 2, 34 dosed): 1 (3) n, % | Difficulty falling asleep, Moderate ([5]; Stage 2, 34 dosed): 0 n, % | Dizziness, Mild ([5]; Stage 2, 34 dosed): 7 (20.5) n, % | Dizziness, Moderate ([5]; Stage 2, 34 dosed): 1 (2.9) n, % | Eye infection, Mild ([5]; Stage 2, 34 dosed): 1 (3) n, % | Eye infection, Moderate ([5]; Stage 2, 34 dosed): 0 n, % | Flatulence, Mild ([5]; Stage 2, 34 dosed): 1 (3) n, % | Flatulence, Moderate ([5]; Stage 2, 34 dosed): 0 n, % | Headache, Mild ([5]; Stage 2, 34 dosed): 3 (8.8) n, % | Headache, Moderate ([5]; Stage 2, 34 dosed): 0 n, % | Increased urinary frequency, Mild ([5]; Stage 2, 34 dosed): 2 (5.8) n, % | Increased urinary frequency, Moderate ([5]; Stage 2, 34 dosed): 0 n, % | Loss of appetite, Mild ([5]; Stage 2, 34 dosed): 0 n, % | Loss of appetite, Moderate ([5]; Stage 2, 34 dosed): 0 n, % | Nausea, Mild ([5]; Stage 2, 34 dosed): 18 (52) n, % | Nausea, Moderate ([5]; Stage 2, 34 dosed): 1 (2.9) n, % | Skin lesions-rash, Mild ([5]; Stage 2, 34 dosed): 3 (8.8) n, % | Skin lesions-rash, Moderate ([5]; Stage 2, 34 dosed): 0 n, % | Urinary retention, Mild ([5]; Stage 2, 34 dosed): 1 (3) n, % | Urinary retention, Moderate ([5]; Stage 2, 34 dosed): 0 n, % | Urinary tract infection, Mild ([5]; Stage 2, 34 dosed): 1 (3) n, % | Urinary tract infection, Moderate ([5]; Stage 2, 34 dosed): 2 (5.8) n, % | Vomiting, Mild ([5]; Stage 2, 34 dosed): 2 (5.8) n, % | Vomiting, Moderate ([5]; Stage 2, 34 dosed): 0 n, % | Worsening acid reflux, Mild ([5]; Stage 2, 34 dosed): 4 (11.7) n, % | Worsening acid reflux, Moderate ([5]; Stage 2, 34 dosed): 0 n, % | Worsening hemorrhoid, Mild ([5]; Stage 2, 34 dosed): 1 (3) n, % | Worsening hemorrhoid, Moderate ([5]; Stage 2, 34 dosed): 0 n, % | patients terminated prior to completion because of recurrent dizziness ([5]; Stage 2, two patients): 5.8% | Lower GI bleed, Severe ([5]; Stage 2, colonic diverticulosis, polyp, patient on aspirin, Plavix and naproxen, unrelated to ENT-01): 1 (2.5) n, % | patients with worsening of hemorrhoids ([6]; 1/44 dosed patients): 2.2% | patients with worsening of acid reflux ([6]; 2/44 dosed patients): 4.5% | patients with flatulence ([6]; 3/44 dosed patients): 6.8% | patients with vomiting ([6]; 3/44 dosed patients): 6.8% | patients with dizziness ([6]; 8/44 dosed patients): 18% | formation of aggregates of αS (αS): inhibit the formation of aggregates of αS
